Experimental data taken from patent US10106534B2 (CELGENE QUANTICEL RESEARCH, INC., priority 2014, dated 2018).

Key:
JMJD2C = JMJD2C (Homo sapiens (Human), UniProt Q9H3R0); assay: In vitro enzyme inhibition assay for JMJD2C activity (TR-FRET); assay type: biochemical
In short: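 Demethylation product H3K9me2 quantified by TR-FRET ratio 665/615 after EDTA stop and 1 h with Eu-anti-H3K9me2 and streptavidin-APC; IC50 by curve fit. Reaction: 0.3 nM JMJD2C (AA 2-372, baculovirus), 2 μM α-ketoglutarate, 300 nM biotin-H3K9me3 peptide, pH 7.3 HEPES with Fe(II)/ascorbate, 30 min room temperature.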

JMJD3 = JMJD3 (Homo sapiens, UniProt O15054); assay: In vitro enzyme inhibition assay for JMJD3 activity (TR-FRET); assay type: biochemical
Method: This assay determines the ability of a test compound to inhibit JMJD3 demethylase activity.
The enzymatic assay of JMJD3 activity is based upon Time Resolved-Fluorescence Resonance Energy Transfer (TR-FRET) detection. […] Reaction product was determined quantitatively by TR-FRET after the addition of detection reagent Phycolink Streptavidin-allophycocyanin (Prozyme) and Europium-anti-di-methylated histone H3 lysine 27 (H3K27me2) antibody (PerkinElmer) in the presence of 5 mM EDTA in LANCE detection buffer (PerkinElmer) at a final concentration of 50 nM and 1 nM, respectively.
The reaction mixture was incubated at room temperature for 30 minutes, and terminated by the addition of 6 μL of 5 mM EDTA in LANCE detection buffer containing 100 nM Phycolink Streptavidin-allophycocyanin and 2 nM Europium-anti-H3K27me2 antibody.

[1] = system: KYSE-150 esophageal carcinoma cell line; assay: In vitro cell-based assay: cellular proliferation via BrdU incorporation (ELISA); set-up: species or system human; conditions: KYSE-150, 168 hours compound incubation
In short: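 BrdU incorporation during S-phase, detected colorimetrically at 450 nm by peroxidase ELISA, measured proliferation after 168 h compound exposure.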

JMJD2C, sequence (Q9H3R0 2-372): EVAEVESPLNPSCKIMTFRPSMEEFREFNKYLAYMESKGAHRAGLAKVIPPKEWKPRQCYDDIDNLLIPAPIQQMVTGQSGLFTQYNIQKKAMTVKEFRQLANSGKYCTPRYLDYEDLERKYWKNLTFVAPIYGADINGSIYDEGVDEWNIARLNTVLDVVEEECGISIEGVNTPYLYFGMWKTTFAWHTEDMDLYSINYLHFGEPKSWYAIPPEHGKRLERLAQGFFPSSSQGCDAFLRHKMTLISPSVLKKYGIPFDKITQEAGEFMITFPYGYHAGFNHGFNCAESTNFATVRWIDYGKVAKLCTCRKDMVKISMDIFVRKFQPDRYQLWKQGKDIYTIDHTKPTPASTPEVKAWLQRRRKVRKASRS

O=C(O)c1ccncc1NC[C@H]1CCOc2cc(-c3ccsc3)ccc21 [Example 33, 3-({[(4S)-7-(thiophen-3-yl)-3,4-dihydro-2H-1-benzopyran-4-yl]methyl}amino)pyridine-4-carboxylic acid] gave an IC50 (JMJD2C) of 1000 to 10000 nM and an IC50 (JMJD3) of less than 100 nM.

With O=C(O)c1ccncc1NC[C@H]1CCOc2cc(-c3ccccc3)ccc21 [Example 83 of U.S. Pat. No. 8,952,151, 3-({[(4S)-7-phenyl-3,4-dihydro-2H-1-benzopyran-4-yl]methyl}amino)pyridine-4-carboxylic acid, reference compound] the “fold more potent for JMJD3 than the R-enantiomer” value (JMJD3; S-enantiomer vs R-enantiomer) was greater than 100 fold.

O=C(O)c1ccncc1NC[C@H]1CCOc2cc(Sc3ccc(F)cc3)ccc21 [Example 54, 3-({[(4S)-7-[(4-fluorophenyl)sulfanyl]-3,4-dihydro-2H-1-benzopyran-4-yl]methyl}amino)pyridine-4-carboxylic acid] showed an IC50 (JMJD2C) of 1000 to 10000 nM and an IC50 (JMJD3) of 100 to 1000 nM.

CN(c1ccc(OC(F)(F)F)cc1)c1ccc2c(c1)OCC[C@H]2CNc1cnccc1C(=O)O [Example 182, 3-({[(4R)-7-{methyl[4-(trifluoromethoxy)phenyl]amino}-3,4-dihydro-2H-1-benzopyran-4-yl]methyl}amino)pyridine-4-carboxylic acid] showed an IC50 (JMJD2C) of 100 to 1000 nM and an IC50 (JMJD3) of 1000 to 10000 nM.

With CN(c1ccccc1)c1ccc2c(c1)CCCC2CNc1cnccc1C(=O)O (stereo in doubt) [Example 2, 3-({[(1S)-6-[methyl(phenyl)amino]-1,2,3,4-tetrahydronaphthalen-1-yl]methyl}amino)pyridine-4-carboxylic acid] the IC50 (JMJD2C) was 100 to 1000 nM and the IC50 (JMJD3) was 1000 to 10000 nM.

O=C(O)c1ccncc1NCC1CCOc2cc(Br)ccc21 (stereo not shown) [Example 14, 3-{[(7-bromo-3,4-dihydro-2H-1-benzopyran-4-yl)methyl]amino}pyridine-4-carboxylic acid] gave an IC50 (JMJD2C) of 100 to 1000 nM and an IC50 ([1]; Homo sapiens) greater than 10000 nM.

CN(c1ccc(-n2cccn2)cc1)c1ccc2c(c1)CCC[C@H]2CNc1cnccc1C(=O)O [Example 188, 3-({[(1R)-6-{methyl[4-(1H-pyrazol-1-yl)phenyl]amino}-1,2,3,4-tetrahydronaphthalen-1-yl]methyl}amino)pyridine-4-carboxylic acid] was tested, and the IC50 (JMJD2C) was 100 to 1000 nM and the IC50 ([1]; Homo sapiens) was no more than 100 nM.

With Cc1cccc(Sc2ccc3c(c2)CCC[C@H]3CNc2cnccc2C(=O)O)c1 [Example 69, 3-({[(1R)-6-[(3-methylphenyl)sulfanyl]-1,2,3,4-tetrahydronaphthalen-1-yl]methyl}amino)pyridine-4-carboxylic acid] the IC50 (JMJD2C) was 1000 to 10000 nM and the IC50 ([1]; Homo sapiens) was 100 to 1000 nM.

With CN(c1ccc2c(c1)CCC2)c1ccc2c(c1)OCC[C@H]2CNc1cnccc1C(=O)O [Example 131, 3-({[(4R)-7-[(2,3-dihydro-1H-inden-5-yl)(methyl)amino]-3,4-dihydro-2H-1-benzopyran-4-yl]methyl}amino)pyridine-4-carboxylic acid] the IC50 (JMJD2C) was 100 to 1000 nM and the IC50 ([1]; Homo sapiens) was no more than 100 nM.

CN(c1ccc(C2=CCOCC2)cc1)c1ccc2c(c1)CCC[C@H]2CNc1cnccc1C(=O)O [Example 174, 3-({[(1R)-6-{[4-(3,6-dihydro-2H-pyran-4-yl)phenyl](methyl)amino}-1,2,3,4-tetrahydronaphthalen-1-yl]methyl}amino)pyridine-4-carboxylic acid] was tested, and the IC50 (JMJD2C) was 1000 to 10000 nM and the IC50 ([1]; Homo sapiens) was no more than 100 nM.

CC(C)C#Cc1ccc2c(c1)OCCC2CNc1cnccc1C(=O)O (stereo not shown) [Example 38, 3-({[7-(3-methylbut-1-yn-1-yl)-3,4-dihydro-2H-1-benzopyran-4-yl]methyl}amino)pyridine-4-carboxylic acid] showed an IC50 (JMJD2C) of 100 to 1000 nM and an IC50 ([1]; Homo sapiens) greater than 10000 nM.

In the case of CN(CC1CC1)c1ccc2c(c1)CCC[C@H]2CNc1cnccc1C(=O)O [Example 120, 3-({[(1R)-6-[(cyclopropylmethyl)(methyl)amino]-1,2,3,4-tetrahydronaphthalen-1-yl]methyl}amino)pyridine-4-carboxylic acid], the IC50 (JMJD2C) is reported as 100 to 1000 nM and the IC50 ([1]; Homo sapiens) is reported as 100 to 1000 nM.

For CN(c1ccc(OC2CC2)cc1)c1ccc2c(c1)OCC[C@H]2CNc1cnccc1C(=O)O [Example 213, 3-({[(4R)-7-[(4-cyclopropoxyphenyl)(methyl)amino]-3,4-dihydro-2H-1-benzopyran-4-yl]methyl}amino)pyridine-4-carboxylic acid], the IC50 (JMJD2C) was 100 to 1000 nM and the IC50 ([1]; Homo sapiens) was no more than 100 nM.

With Cc1cc2c(cc1C)C(CNc1cnccc1C(=O)O)CCO2 (stereo not shown) [Example 93, 3-{[(6,7-dimethyl-3,4-dihydro-2H-1-benzopyran-4-yl)methyl]amino}pyridine-4-carboxylic acid] the IC50 (JMJD2C) was 100 to 1000 nM and the IC50 ([1]; Homo sapiens) was 1000 to 10000 nM.

For O=C(O)c1ccncc1NCC1CCOc2cc(Nc3ccccc3)ccc21 (stereo not shown) [Example 15, 3-({[7-(phenylamino)-3,4-dihydro-2H-1-benzopyran-4-yl]methyl}amino)pyridine-4-carboxylic acid], the IC50 (JMJD2C) was 100 to 1000 nM and the IC50 ([1]; Homo sapiens) was 1000 to 10000 nM.

For COc1ccccc1N(C)c1ccc2c(c1)CCC[C@H]2CNc1cnccc1C(=O)O [Example 172, 3-({[(1R)-6-[(2-methoxyphenyl)(methyl)amino]-1,2,3,4-tetrahydronaphthalen-1-yl]methyl}amino)pyridine-4-carboxylic acid], the IC50 (JMJD2C) was 100 to 1000 nM and the IC50 ([1]; Homo sapiens) was 100 to 1000 nM.

For CN(c1ccc(CCO)cc1)c1ccc2c(c1)OCC[C@H]2CNc1cnccc1C(=O)O [Example 207, 3-({[(4R)-7-{[4-(2-hydroxyethyl)phenyl](methyl)amino}-3,4-dihydro-2H-1-benzopyran-4-yl]methyl}amino)pyridine-4-carboxylic acid], the IC50 (JMJD2C) was 100 to 1000 nM and the IC50 ([1]; Homo sapiens) was 100 to 1000 nM.

With Cc1ccccc1Sc1ccc2c(c1)CCC[C@H]2CNc1cnccc1C(=O)O [Example 71, 3-({[(1R)-6-[(2-methylphenyl)sulfanyl]-1,2,3,4-tetrahydronaphthalen-1-yl]methyl}amino)pyridine-4-carboxylic acid] the IC50 (JMJD2C) was 1000 to 10000 nM and the IC50 ([1]; Homo sapiens) was 100 to 1000 nM.

Cc1ccc(-c2ccc3c(c2)OCC[C@H]3CNc2cnccc2C(=O)O)cc1 [Example 32, 3-({[(4R)-7-(4-methylphenyl)-3,4-dihydro-2H-1-benzopyran-4-yl]methyl}amino)pyridine-4-carboxylic acid] showed an IC50 (JMJD2C) of 100 to 1000 nM and an IC50 ([1]; Homo sapiens) of 1000 to 10000 nM.

With Cc1c(F)cccc1-c1ccc2c(c1)OCC[C@H]2CNc1cnccc1C(=O)O [Example 42, 3-({[(4R)-7-(3-fluoro-2-methylphenyl)-3,4-dihydro-2H-1-benzopyran-4-yl]methyl}amino)pyridine-4-carboxylic acid] the IC50 (JMJD2C) was 100 to 1000 nM and the IC50 ([1]; Homo sapiens) was 100 to 1000 nM.

“3-({[(1R)-6-[methyl(2-methyl-1,3-thiazol-4-yl)amino]-1,2,3,4-tetrahydronaphthalen-1-yl]methyl}amino)pyridine-4-carboxylic acid [Example 139]” showed an IC50 (JMJD2C) of 100 to 1000 nM and an IC50 [1] of no more than 100 nM.

For CN(c1ccccc1)c1ccc2c(c1)CCOC2CNc1cnccc1C(=O)O (stereo not shown) [Example 146, 3-[({6-[methyl(phenyl)amino]-3,4-dihydro-1H-2-benzopyran-1-yl}methyl)amino]pyridine-4-carboxylic acid], the IC50 (JMJD2C) was 100 to 1000 nM and the IC50 ([1]; Homo sapiens) was no more than 100 nM.

Compound Cc1ccc(Sc2ccc3c(c2)CCC[C@H]3CNc2cnccc2C(=O)O)cc1 [Example 79, 3-({[(1R)-6-[(4-methylphenyl)sulfanyl]-1,2,3,4-tetrahydronaphthalen-1-yl]methyl}amino)pyridine-4-carboxylic acid] has an IC50 (JMJD2C) of 1000 to 10000 nM and an IC50 ([1]; Homo sapiens) of no more than 100 nM.

CN(c1ccc2c(c1)CCC[C@H]2CNc1cnccc1C(=O)O)c1ccc2ccoc2c1 [Example 135, 3-({[(1R)-6-[(1-benzofuran-6-yl)(methyl)amino]-1,2,3,4-tetrahydronaphthalen-1-yl]methyl}amino)pyridine-4-carboxylic acid] showed an IC50 (JMJD2C) of 100 to 1000 nM and an IC50 ([1]; Homo sapiens) of no more than 100 nM.

For CN1CC=C(c2ccc(N(C)c3ccc4c(c3)OCC[C@H]4CNc3cnccc3C(=O)O)cc2)CC1 [Example 204, 3-({[(4R)-7-{methyl[4-(1-methyl-1,2,3,6-tetrahydropyridin-4-yl)phenyl]amino}-3,4-dihydro-2H-1-benzopyran-4-yl]methyl}amino)pyridine-4-carboxylic acid], the IC50 (JMJD2C) was no more than 100 nM and the IC50 ([1]; Homo sapiens) was greater than 10000 nM.

With COc1ccc(N(C)c2ccc3c(c2)OCC[C@H]3CNc2cnccc2C(=O)O)cc1 [Example 178, 3-({[(4R)-7-[(4-methoxyphenyl)(methyl)amino]-3,4-dihydro-2H-1-benzopyran-4-yl]methyl}amino)pyridine-4-carboxylic acid] the IC50 (JMJD2C) was no more than 100 nM and the IC50 ([1]; Homo sapiens) was no more than 100 nM.

Work on O=C(O)c1ccncc1NCC1CCCc2cc(N3CCCC3=O)ccc21 (stereo not shown) [Example 3, 3-({[6-(2-oxopyrrolidin-1-yl)-1,2,3,4-tetrahydronaphthalen-1-yl]methyl}amino)pyridine-4-carboxylic acid] yielded an IC50 (JMJD2C) of 100 to 1000 nM and an IC50 ([1]; Homo sapiens) greater than 10000 nM.

CN(c1ccc(OCC(F)(F)F)cc1)c1ccc2c(c1)OCC[C@H]2CNc1cnccc1C(=O)O [Example 214, 3-({[(4R)-7-{methyl[4-(2,2,2-trifluoroethoxy)phenyl]amino}-3,4-dihydro-2H-1-benzopyran-4-yl]methyl}amino)pyridine-4-carboxylic acid] was tested, and the IC50 (JMJD2C) was 100 to 1000 nM and the IC50 ([1]; Homo sapiens) was no more than 100 nM.
